# Data published in patent publication US7868013B2, “Cycloalkyl substituted pyrimidinediamine compounds and their uses” (Rigel Pharmaceuticals, Inc., priority 2004, dated 2011).
# Where a name gives a salt, the structure may show the parent alone. Read-outs that look alike come from different tables or passages of the source.
# Assays:
# Type in all cases: cell-based
# A549 (lung carcinoma) = assay: In vitro antiproliferation assay, A549 cells (TABLE 1 6 point assay; TABLE 2)
# Experimental: (§1) Certain compounds were tested against other cell types for their ability to inhibit proliferation in standard antiproliferation assays.
# [1] = test system: H1299 (non-small cell lung carcinoma); assay: In vitro antiproliferation assay, H1299 cells (TABLE 1 6 point assay; TABLE 2)
# Experimental: as §1
# H7299 = assay: In vitro antiproliferation assay, H7299 cells
# Experimental: as §1
# [2] = test system: a variety of tumor cell types; assay: In vitro antiproliferation assays against a variety of tumor cell types (stereoisomer comparison); details: for IC50s when tested as isolated stereoisomers: range in words, same cell lines; for Inhibition of proliferation of a variety of tumor cell lines: in words
# Experimental: Moreover, it has been discovered that the enantiomer corresponding to the (1R,2R,3S,4S) diastereomer of structural formula (IVa) is largely responsible for the potency of the exo-exo cis racemate.
# as §1
# [3] = test system: MiaPaCa-2 (pancreatic carcinoma); assay: In vitro antiproliferation assay, MiaPaCa-2 cells; details: Homo sapiens, MIA PaCa-2
# Experimental: (§2) Cis racemic Compound 15, (1S,2R) enantiomeric Compound 15a and […] enantiomeric Compound 15b were also tested against DU145 (prostate carcinoma), HCT116 (colorectal carcinoma) and MiaPaCa-2 (pancreatic carcinoma) cell lines.
# as §1
# [4] = test system: HCT116 (colorectal carcinoma); assay: In vitro antiproliferation assay, HCT116 cells; details: Homo sapiens, HCT-116; HCT116 (colorectal carcinoma) cell line
# Experimental: as §2
# Aurora kinase-B = biological target: T1, Aurora kinase-B (Homo sapiens, UniProt Q96GD4); assay: Functional cellular assay of Aurora kinase-B: phosphorylation of histone H3 in A549 cells; details: in words
# T1 construct: endogenous in cells; host or cells: A549 cells
# T1 sequence (Q96GD4 whole entry): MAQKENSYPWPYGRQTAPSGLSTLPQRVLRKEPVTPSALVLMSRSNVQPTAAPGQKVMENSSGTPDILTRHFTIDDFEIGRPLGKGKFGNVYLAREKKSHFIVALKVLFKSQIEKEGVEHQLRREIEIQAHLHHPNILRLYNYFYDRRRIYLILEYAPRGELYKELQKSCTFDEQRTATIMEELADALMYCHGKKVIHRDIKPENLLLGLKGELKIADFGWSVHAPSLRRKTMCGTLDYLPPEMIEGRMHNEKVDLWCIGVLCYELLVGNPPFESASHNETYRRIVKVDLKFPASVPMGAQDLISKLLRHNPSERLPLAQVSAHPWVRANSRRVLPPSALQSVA
# Experimental: Enantiomers E1 and E2 (Compounds 60a and 60b, respectively) were tested for their ability to inhibit Aurora kinase-B in a functional cellular assay involving phosphorylation of its substrate, histone H3. For the assay, A549 cells were seeded into the wells of a microtiter tray (5000 cells/well in 100 μl F12K media) late in the afternoon on Day 1. The cells were grown overnight (37° C., 5% CO2) On Day 2, 50 μl nocodazole (1 μM in media) was added to each well, giving a final concentration of 333 nM. Cells were grown for an additional 18 hrs under the same conditions.
# On Day 3, 50 μl aliguots of varying concentrations of test compound were added to the wells Test compounds were prepared by 2-fold serial dilution of a […] stock (in DMSO). The diluted compounds in DMSO were then further diluted 1:50 with media to yield a final solution containing 4× test compound, 98% media, 2% DMSO. After incubation, the media/test compound was washed and the cells fixed with 2% paraformaldehyde (in Dulbecco's phosphate buffered saline “DPBS”; 25 μl per well; […] incubation). […] The cells were then stained with a secondary antibody labeled with a fluorescent dye (secondary antibody donkey anti-mouse AlexFluor 488 (Invitrogen Molecular Probes; 1:2000) and DAPI (1:15,000 of 1 mg/ml stock) for 1 hr at room temperature, washed three times with DPBS (200 μl/well) and stored under DPBS (100 μl/well) at 4° C. until ready for analysis.
# A Zeiss Axiovert S100 inverted fluorescent microscope with a Plan-NEOFLUAR 10× objective, a Hamamatsu Lightningcure 200 Mercury-Xenon light source and an Omega Optical XF57 quad filter was used for all data collection. […] Images were captured and analyzed in 12-bit format using segmentation and morphological routines contained in the Image Pro software package. Identified nuclei were counted and pixel data for each cell along with experimental conditions was stored in a database using MySQL 4.0.14. […]
# For phospho-histone H3 analysis the data is converted to Facs files and analysed using FlowJo. […]
# [5] = test system: COLO 205 (colorectal adenocarcinoma); assay: In vitro antiproliferation assay, COLO 205 cells; details: Homo sapiens, COLO 205; Colo205
# Experimental: as §1
# [6] = test system: HL160 (promyeloblast promyelocytic leukemia); assay: In vitro antiproliferation assay, HL160 cells
# Experimental: as §1
# [7] = test system: K562 (bone marrow chronic myelogenous leukemia); assay: In vitro antiproliferation assay, K562 cells; details: Homo sapiens
# Experimental: as §1
# [8] = test system: L1210 (mouse lymphocytic leukemia); assay: In vitro antiproliferation assay, L1210 cells; details: Mus musculus
# Experimental: as §1
# [9] = test system: MOLT3 (T lymphoblast acute lymphoblastic leukemia); assay: In vitro antiproliferation assay, MOLT3 cells; details: Homo sapiens, MOLT-3
# Experimental: as §1
# [10] = test system: MOLT4 (T lymphoblast acute lymphoblastic leukemia); assay: In vitro antiproliferation assay, MOLT4 cells; details: Homo sapiens, MOLT-4
# Experimental: as §1
# [11] = test system: SW620 (colorectal adenocarcinoma); assay: In vitro antiproliferation assay, SW620 cells; details: Homo sapiens, SW-620
# Experimental: as §1
# [12] = test system: THP-1 (monocyte acute monocytic leukemia); assay: In vitro antiproliferation assay, THP-1 cells; details: Homo sapiens
# Experimental: as §1
# [13] = test system: U937 (histiocytic lymphoma); assay: In vitro antiproliferation assay, U937 cells; details: Homo sapiens, U-937
# Experimental: as §1
# [14] = 6 point assay, A549 cells, read-out: IC50, A549 cells
# [15] = 6 point assay, H1299 cells, read-out: IC50, H1299 cells
# [16] = Homo sapiens, A549, 6 point assay, A549 cells, read-out: IC50, A549 cells
# [17] = Homo sapiens, NCI-H1299, 6 point assay, H1299 cells, read-out: IC50, H1299 cells
compound,measurement,setting,value
"Cc1cc(Nc2ncc(F)c(NC3C4C=CC(C4)C3C(N)=O)n2)ccc1N1CCN(C)CC1 (racemic) [Compound 60r2, Racemic-(2-endo,3-endo)-N4-(3-aminocarbonylbicyclo[2.2.1]hept-5-en-2-yl)-5-fluoro-N2-[3-methyl-4-(4-methylpiperazin-1-yl)phenyl]-2,4-pyrimidinediamine]",IC50,A549 (lung carcinoma); [14],100 to 1000 nM
same,IC50,"A549 (lung carcinoma); A549, read-out: In Vitro IC50",≤ 1000 nM
same,IC50,[1]; [15],100 to 1000 nM
same,IC50,H7299,≤ 1000 nM
"Cc1cc(Nc2ncc(F)c(NC3C4C=CC(C4)C3C(N)=O)n2)ccc1N1CCN(C)CC1 (racemic) [Compound 228, Racemic N4-(3-Aminocarbonylbicyclo[2.2.1]hept-5-en-2-yl)-5-fluoro-N2-[3-methyl-4-(4-methylpiperazin-1-yl)phenyl]-2,4-pyrimidinediamine Hydrogen Chloride Salt]",IC50,A549 (lung carcinoma); [14],≤ 100 nM
same,IC50,"A549 (lung carcinoma); A549, read-out: In Vitro IC50",≤ 1000 nM
same,IC50,[1]; [15],≤ 100 nM
same,IC50,"[1]; H1299, read-out: In Vitro IC50",≤ 1000 nM
same,IC50,H7299,≤ 1000 nM
"Cc1cc(Nc2ncc(F)c(NC3C4C=CC(C4)C3C(N)=O)n2)ccc1N1CCN(C)CC1 (racemic) [cis exo-exo racemate, N4-(3-aminocarbonylbicyclo[2.2.1]hept-5-en-2-yl)-5-fluoro-N2-[3-methyl-4-(4-methylpiperazin-1-yl)phenyl]-2,4-pyrimidinediamine]",Potency relative to the cis endo-endo racemate,"[2]; cis exo-exo racemate, all cell lines tested",approximately twenty-fold more potent
"Cc1cc(Nc2ncc(F)c(N[C@H]3CCC[C@H]3C(N)=O)n2)ccc1N1CCN(C)CC1 (stereo in doubt) [Compound 15a, (1S,2R)—N4-(2-Aminocarbonylcyclopent-1-yl)-5-fluoro-N2-[4-(4-methylpiperazin-1-yl)-3-methylphenyl]-2,4-pyrimidinediamine]",IC50,A549 (lung carcinoma); [16],100 to 1000 nM
same,IC50,[1]; [17],100 to 1000 nM
same,IC50,"[3]; MiaPaCa-2 (pancreatic carcinoma) cell line, read-out: IC50",< 1000 nM
same,IC50,[4],< 1000 nM
"Cc1cc(Nc2ncc(F)c(NC3C4C=CC(C4)C3C(N)=O)n2)ccc1N1CCN(C)CC1 [(1R,2R,3S,4S) diastereomer, N4-(3-aminocarbonylbicyclo[2.2.1]hept-5-en-2-yl)-5-fluoro-N2-[3-methyl-4-(4-methylpiperazin-1-yl)phenyl]-2,4-pyrimidinediamine]","Result in cell-based inhibition assays against Aurora kinase B compared to the (1S,2S,3R,4R) diastereomer",Aurora kinase-B,similarly superior results
same,Potency relative to the endo-endo racemate,"[2]; (1R,2R,3S,4S) diastereomer, more potent",20-50 times
same,"Potency relative to the (1S,2S,3R,4R) diastereomer",[2]; more potent,approximately 1000 fold
same,IC50s when tested as isolated stereoisomers,[2],nanomolar range
"Cc1cc(Nc2ncc(F)c(NC3C4C=CC(C4)C3C(N)=O)n2)ccc1N1CCN(C)CC1 [(1S,2S,3R,4R) diastereomer, N4-(3-aminocarbonylbicyclo[2.2.1]hept-5-en-2-yl)-5-fluoro-N2-[3-methyl-4-(4-methylpiperazin-1-yl)phenyl]-2,4-pyrimidinediamine]",IC50s when tested as isolated stereoisomers,[2],micromolar range
"Cc1cc(Nc2ncc(F)c(NC3CCCC3C(N)=O)n2)ccc1N1CCN(C)CC1 [cis (1R,2S), N4-(2-aminocarbonylcyclopent-1-yl)-5-fluoro-N2-[4-(4-methylpiperazin-1-yl)-3-methylphenyl]-2,4-pyrimidinediamine]",Inhibition of proliferation of a variety of tumor cell lines,[2],inhibit the proliferation
"Cc1cc(Nc2ncc(F)c(NC3CCCC3C(N)=O)n2)ccc1N1CCN(C)CC1 [cis (1S,2R), N4-(2-aminocarbonylcyclopent-1-yl)-5-fluoro-N2-[4-(4-methylpiperazin-1-yl)-3-methylphenyl]-2,4-pyrimidinediamine]",Inhibition of proliferation of a variety of tumor cell lines,[2],inhibit the proliferation
"Cc1cc(Nc2ncc(F)c(N[C@@H]3CCC[C@@H]3C(N)=O)n2)ccc1N1CCN(C)CC1 [compound 222, (1R,2S)-N4-(2-Aminocarbonylcyclopent-1-yl)-5-fluoro-N2-[3-methyl-4-(4-methylpiperazin-1-yl)phenyl]-2,4-pyrimidinediamine Bis Hydrogen Chloride Salt]",IC50,A549 (lung carcinoma); [14],100 to 1000 nM
same,IC50,"A549 (lung carcinoma); Homo sapiens, A549, A549, read-out: In Vitro IC50",≤ 1000 nM
same,IC50,[1]; [15],100 to 1000 nM
same,IC50,"[1]; Homo sapiens, NCI-H1299, H1299, read-out: In Vitro IC50",≤ 1000 nM
same,IC50,[5],≤ 1000 nM
same,IC50,[6],≤ 1000 nM
same,IC50,[7],> 1000 nM
same,IC50,[8],≤ 1000 nM
same,IC50,"[3]; Miapaca2, read-out: In Vitro IC50",≤ 1000 nM
same,IC50,[9],≤ 1000 nM
same,IC50,[10],≤ 1000 nM
same,IC50,[11],≤ 1000 nM
same,IC50,[12],≤ 1000 nM
same,IC50,[13],≤ 1000 nM
"NC(=O)[C@@H]1[C@H](Nc2nc(Nc3ccc(C4CCNCC4)cc3)ncc2F)[C@H]2C=C[C@@H]1C2 [compound 273, (1R,2R,3S,4S)-N4-(3-Aminocarbonylbicyclo[2.2.1]hept-5-en-2-yl)-5-fluoro-N2-[4-(piperidin-4-yl)phenyl]-2,4-pyrimidinediamine]",IC50,A549 (lung carcinoma); [16],≤ 100 nM
same,IC50,[1]; [17],100 to 1000 nM
"NC(=O)[C@@H]1[C@H](Nc2nc(Nc3cccc(C4CCNCC4)c3)ncc2F)[C@H]2C=C[C@@H]1C2 [compound 274, (1R,2R,3S,4S)-N4-(3-Aminocarbonylbicyclo[2.2.1]hept-5-en-2-yl)-5-fluoro-N2-[3-(piperidin-4-yl)phenyl]-2,4-pyrimidinediamine]",IC50,A549 (lung carcinoma); [16],≤ 100 nM
same,IC50,[1]; [17],≤ 100 nM
"CN1CCC(c2cccc(Nc3ncc(F)c(N[C@H]4[C@@H](C(N)=O)[C@@H]5C=C[C@H]4C5)n3)c2)CC1 [compound 275, (1R,2R,3S,4S)-N4-(3-Aminocarbonylbicyclo[2.2.1]hept-5-en-2-yl)-5-fluoro-N2-[3-(1-methylpiperidin-4-yl)phenyl]-2,4-pyrimidinediamine]",IC50,A549 (lung carcinoma); [16],≤ 100 nM
same,IC50,[1]; [17],≤ 100 nM
"Cc1cc(Nc2ncc(F)c(NC3CCCC3C(N)=O)n2)ccc1N1CCN(C)CC1 [trans (1R,2R) diastereomer, N4-(2-aminocarbonylcyclopent-1-yl)-5-fluoro-N2-[4-(4-methylpiperazin-1-yl)-3-methylphenyl]-2,4-pyrimidinediamine]",Inhibition of proliferation of a variety of tumor cell lines,[2],inhibit the proliferation
"Cc1cc(Nc2ncc(F)c(NC3CCCC3C(N)=O)n2)ccc1N1CCN(C)CC1 [trans (1S,2S) diastereomer, N4-(2-aminocarbonylcyclopent-1-yl)-5-fluoro-N2-[4-(4-methylpiperazin-1-yl)-3-methylphenyl]-2,4-pyrimidinediamine]",Inhibition of proliferation of a variety of tumor cell lines,[2],relatively inactive
